The test concerns the target T1, Full-length USP19 (Homo sapiens, UniProt O94966).
T1 construct: Full-length USP19 was purchased from Boston Biochem (E-576); purchased Boston Biochem E-576
T1 sequence (O94966 1-1318): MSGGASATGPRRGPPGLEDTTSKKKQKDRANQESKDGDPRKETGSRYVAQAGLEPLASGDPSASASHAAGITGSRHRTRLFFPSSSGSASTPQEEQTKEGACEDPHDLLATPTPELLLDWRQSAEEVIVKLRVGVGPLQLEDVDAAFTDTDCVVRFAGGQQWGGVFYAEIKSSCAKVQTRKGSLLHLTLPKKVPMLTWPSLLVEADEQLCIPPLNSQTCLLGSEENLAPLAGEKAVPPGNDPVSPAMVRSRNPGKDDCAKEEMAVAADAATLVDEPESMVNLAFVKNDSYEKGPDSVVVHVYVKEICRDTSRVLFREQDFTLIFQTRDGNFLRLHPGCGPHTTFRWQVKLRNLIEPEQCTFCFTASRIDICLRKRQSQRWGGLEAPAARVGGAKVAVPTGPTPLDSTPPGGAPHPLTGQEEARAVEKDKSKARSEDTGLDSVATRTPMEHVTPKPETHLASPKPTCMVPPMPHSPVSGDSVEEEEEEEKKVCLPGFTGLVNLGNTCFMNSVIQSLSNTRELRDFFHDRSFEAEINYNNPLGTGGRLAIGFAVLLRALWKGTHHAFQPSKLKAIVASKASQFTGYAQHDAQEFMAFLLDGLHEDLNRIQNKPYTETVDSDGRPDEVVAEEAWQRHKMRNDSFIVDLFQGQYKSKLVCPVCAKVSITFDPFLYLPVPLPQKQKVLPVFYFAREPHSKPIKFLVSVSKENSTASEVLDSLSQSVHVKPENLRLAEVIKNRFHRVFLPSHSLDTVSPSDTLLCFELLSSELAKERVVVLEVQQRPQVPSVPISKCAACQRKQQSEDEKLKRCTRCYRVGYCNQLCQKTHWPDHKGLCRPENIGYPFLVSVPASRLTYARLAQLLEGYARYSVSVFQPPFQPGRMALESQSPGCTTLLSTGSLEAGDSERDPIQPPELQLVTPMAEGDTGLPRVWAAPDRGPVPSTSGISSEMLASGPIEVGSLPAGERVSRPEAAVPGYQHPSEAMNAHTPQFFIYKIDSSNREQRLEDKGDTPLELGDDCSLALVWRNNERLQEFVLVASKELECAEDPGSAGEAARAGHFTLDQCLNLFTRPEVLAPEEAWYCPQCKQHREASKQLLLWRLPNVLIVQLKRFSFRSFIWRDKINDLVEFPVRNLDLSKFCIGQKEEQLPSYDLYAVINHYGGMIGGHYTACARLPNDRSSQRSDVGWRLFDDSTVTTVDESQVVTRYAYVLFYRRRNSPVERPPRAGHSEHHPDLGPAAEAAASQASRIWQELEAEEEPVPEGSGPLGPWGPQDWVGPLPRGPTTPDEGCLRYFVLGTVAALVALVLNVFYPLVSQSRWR
The test is described as follows: USP19 fluorescence polarisation (FP) homogeneous assay with Ubiquitin-Lys-TAMRA substrate. It counts as biochemical. To be noted: 2.5 nM USP19, 30 min pre-incubation, average of at least two duplicate experiments. The procedure, abridged: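 Full-length USP19 preincubated 30 min at RT with inhibitor (200 μM to 2 μM series, 8–18 points) before adding 500 nM Ubiquitin-Lys-TAMRA substrate.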
A general note: In fluorescence polarisation assays a small probe gives low polarisation when free and higher when bound to something large.

Consider 24 molecules from patent US20220033397A1, “PHARMACEUTICAL COMPOUNDS AND THEIR USE AS INHIBITORS OF UBIQUITIN SPECIFIC PROTEASE 19 (USP19)” (ALMAC DISCOVERY LIMITED, priority 2018, published 2022).

Where only a bound is given, the exact number is not on record here.

For orientation: IC50 means the concentration needed to halve the response being measured. For the molecule `C[C@@H]1CN(CC2(O)CCN(C(=O)[C@H](C)CC(F)(F)F)CC23CCCC3)C(=O)CO1` (stereo partly drawn) [Example 94, (6R)-4-((10-Hydroxy-7-((R)-4,4,4-trifluoro-2-methylbutanoyl)-7-azaspiro[4.5]decan-10-yl)methyl)-6-methylmorpholin-3-one], the IC50 fell in the range of 50 to 250 µM.

In the case of `C[C@H](CC(F)(F)F)C(=O)N1CCC(O)(CN2CC(C3CC3)OCC2=O)C2(CCCC2)C1` (stereo partly drawn) [Example 95, 6-Cyclopropyl-4-((10-hydroxy-7-((R)-4,4,4-trifluoro-2-methylbutanoyl)-7-azaspiro[4.5]decan-10-yl)methyl)morpholin-3-one], the IC50 was in the range of 50 to 250 µM.

`C[C@H](CC(F)(F)F)C(=O)N1CCC(O)(CN2C(=O)COCC23CC3)C2(CCCC2)C1` (stereo partly drawn) [Example 96, 4-((10-Hydroxy-7-((R)-4,4,4-trifluoro-2-methylbutanoyl)-7-azaspiro[4.5]decan-10-yl)methyl)-7-oxa-4-azaspiro[2.5]octan-5-one]: the concentration for half-maximal inhibition (IC50) fell in the range of 50 to 250 µM.

Regarding `CC1CN(CC2(O)CCN(C(=O)[C@H](C)CC(F)(F)F)CC23CCCC3)C(=O)CO1` (stereo partly drawn) [Example 97, 4-((10-Hydroxy-7-((R)-4,4,4-trifluoro-2-methylbutanoyl)-7-azaspiro[4.5]decan-10-yl)methyl)-6-methylmorpholin-3-one], the IC50 lay in the range of 50 to 250 µM.

Take `COCC1CCN(CC2(O)CCN(C(=O)[C@H](C)CC(F)(F)F)CC23CCCC3)C(=O)C1` (stereo partly drawn) [Example 98, 1-((10-Hydroxy-7-((R)-4,4,4-trifluoro-2-methylbutanoyl)-7-azaspiro[4.5]decan-10-yl)methyl)-4-(methoxymethyl)piperidin-2-one]: the IC50 fell in the range of 5 to 50 µM.

On to `CC1CC(=O)N(CC2(O)CCN(C(=O)[C@H](C)CC(F)(F)F)CC23CCCC3)CC(C)C1` (stereo partly drawn) [Example 99, 1-((10-Hydroxy-7-((R)-4,4,4-trifluoro-2-methylbutanoyl)-7-azaspiro[4.5]decan-10-yl)methyl)-4,6-dimethylazepan-2-one], for which the IC50 was 5 to 50 µM.

In the case of `CCC1CCN(CC2(O)CCN(C(=O)[C@H](C)CC(F)(F)F)CC23CCCC3)C(=O)C1` (stereo partly drawn) [Example 100, 4-Ethyl-1-((10-hydroxy-7-((R)-4,4,4-trifluoro-2-methylbutanoyl)-7-azaspiro[4.5]decan-10-yl)methyl)piperidin-2-one], the 50% inhibitory concentration (IC50) is 5 to 50 µM.

Take `C[C@H](CC(F)(F)F)C(=O)N1CCC(O)(CN2C(=O)CC2c2ccccc2)C2(CCCC2)C1` (stereo partly drawn) [Example 101, 1-((10-Hydroxy-7-((R)-4,4,4-trifluoro-2-methylbutanoyl)-7-azaspiro[4.5]decan-10-yl)methyl)-4-phenylazetidin-2-one]: the half-inhibitory concentration (IC50) was 50 to 250 µM.

Turning to `C[C@H](CC1CCCCC1)C(=O)N1CCC(O)(CN2Cc3cccnc3C2=O)C2(CCCC2)C1` (stereo partly drawn) [Example 102, 6-((7-((R)-3-Cyclohexyl-2-methylpropanoyl)-10-hydroxy-7-azaspiro[4.5]decan-10-yl)methyl)-5,6-dihydro-7H-pyrrolo[3,4-b]pyridin-7-one], the IC50 lay within 5 to 50 µM.

For `C[C@H](CC1CCCCC1)C(=O)N1CCC(O)(CN2Cc3ncccc3C2=O)C2(CCCC2)C1` (stereo partly drawn) [Example 103, 6-((7-((R)-3-Cyclohexyl-2-methylpropanoyl)-10-hydroxy-7-azaspiro[4.5]decan-10-yl)methyl)-6,7-dihydro-5H-pyrrolo[3,4-b]pyridin-5-one], the 50% inhibitory concentration (IC50) was 0.5 to 5 µM.

Take `C[C@H](CC(F)(F)F)C(=O)N1CCC(O)(CN2Cc3ncccc3C2=O)C2(CCCC2)C1` (stereo partly drawn) [Example 104, 6-((10-Hydroxy-7-((R)-4,4,4-trifluoro-2-methylbutanoyl)-7-azaspiro[4.5]decan-10-yl)methyl)-6,7-dihydro-5H-pyrrolo[3,4-b]pyridin-5-one]: the half-inhibitory concentration (IC50) lay within 50 to 250 µM.

`C[C@H](CC(F)(F)F)C(=O)N1CCC(O)(CN2Cc3cnccc3C2=O)C2(CCCC2)C1` (stereo partly drawn) [Example 106, 2-((10-Hydroxy-7-((R)-4,4,4-trifluoro-2-methylbutanoyl)-7-azaspiro[4.5]decan-10-yl)methyl)-2,3-dihydro-1H-pyrrolo[3,4-c]pyridin-1-one]: the IC50 was 50 to 250 µM.

As for `O=C1CN(C(=O)c2ccccc2)CCN1CC1(O)CCN(C(=O)NCc2ccccc2)CC12CCCC2` (stereo not drawn) [Example 107, 10-((4-Benzoyl-2-oxopiperazin-1-yl)methyl)-N-benzyl-10-hydroxy-7-azaspiro[4.5]decane-7-carboxamide], the IC50 lay within 5 to 50 µM.

As for `C[C@H](CC(F)(F)F)C(=O)N1CCC(O)(CN2CCN(C(=O)c3ccccc3)CC2=O)C2(CCCC2)C1` (stereo partly drawn) [Example 108, 4-Benzoyl-1-((10-hydroxy-7-((R)-4,4,4-trifluoro-2-methylbutanoyl)-7-azaspiro[4.5]decan-10-yl)methyl)Piperazin-2-one], the IC50 fell in the range of 5 to 50 µM.

Consider `O=C1CN(c2ccccc2)CCN1CC1(O)CCN(C(=O)NCc2ccccc2)CC12CCCC2` (stereo not drawn) [Example 109, N-Benzyl-10-hydroxy-10-((2-oxo-4-phenylpiperazin-1-yl)methyl)-7-azaspiro[4.5]decane-7-carboxamide], for which the half-inhibitory concentration (IC50) was less than 0.5 µM.

As for `C[C@H](CC(F)(F)F)C(=O)N1CCC(O)(CN2CCN(c3ccccc3)CC2=O)C2(CCCC2)C1` (stereo partly drawn) [Example 110, 1-((10-Hydroxy-7-((R)-4,4,4-trifluoro-2-methylbutanoyl)-7-azaspiro[4.5]decan-10-yl)methyl)-4-phenylpiperazin-2-one], the IC50 was less than 0.5 µM.

For `CC(=O)N1CCN(CC2(O)CCN(C(=O)NCc3ccccc3)CC23CCCC3)C(=O)C1` (stereo not drawn) [Example 111, 10-((4-Acetyl-2-oxopiperazin-1-yl)methyl)-N-benzyl-10-hydroxy-7-azaspiro[4.5]decane-7-carboxamide], the IC50 was in the range of 5 to 50 µM.

As to `CC(=O)N1CCN(CC2(O)CCN(C(=O)[C@H](C)CC(F)(F)F)CC23CCCC3)C(=O)C1` (stereo partly drawn) [Example 112, 4-Acetyl-1-((10-hydroxy-7-((R)-4,4,4-trifluoro-2-methylbutanoyl)-7-azaspiro[4.5]decan-10-yl)methyl)piperazin-2-one], the IC50 lay in the range of 5 to 50 µM.

As to `C[C@H](CC(F)(F)F)C(=O)N1CCC(O)(CN2CCN(c3ccccn3)CC2=O)C2(CCCC2)C1` (stereo partly drawn) [Example 113, 1-((10-Hydroxy-7-((R)-4,4,4-trifluoro-2-methylbutanoyl)-7-azaspiro[4.5]decan-10-yl)methyl)-4-(pyridin-2-yl)piperazin-2-one], the IC50 is less than 0.5 µM.

For `C[C@H](CC1CCCCC1)C(=O)N1CCC(O)(CN2CCN(C)CC2=O)C2(CCCC2)C1` (stereo partly drawn) [Example 114, 1-((7-((R)-3-Cyclohexyl-2-methylpropanoyl)-10-hydroxy-7-azaspiro[4.5]decan-10-yl)methyl)-4-methylpiperazin-2-one], the concentration for half-maximal inhibition (IC50) lay in the range of 0.5 to 5 µM.

`CC1(C)CCC(N2CCN(CC3(O)CCN(C(=O)NCc4ccccc4)CC34CCCC4)C(=O)C2)CC1` (stereo not drawn) [Example 115, N-Benzyl-10-((4-(4,4-dimethylcyclohexyl)-2-oxopiperazin-1-yl)methyl)-10-hydroxy-7-azaspiro[4.5]decane-7-carboxamide]: the IC50 lay in the range of 0.5 to 5 µM.

For `C[C@H](CC(F)(F)F)C(=O)N1CCC(O)(CN2CCN(C3CCC(C)(C)CC3)CC2=O)C2(CCCC2)C1` (stereo partly drawn) [Example 116, 4-(4,4-Dimethylcyclohexyl)-1-((10-hydroxy-7-((R)-4,4,4-trifluoro-2-methylbutanoyl)-7-azaspiro[4.5]decan-10-yl)methyl)Piperazin-2-one], the half-inhibitory concentration (IC50) was in the range of 5 to 50 µM.

`O=C1COCCN1CC1(O)CCN(C(=O)N2CCOC[C@H]2c2ccccc2)CC12CCCC2` (stereo partly drawn) [Example 117, 4-((10-Hydroxy-7-((R)-3-phenylmorpholine-4-carbonyl)-7-azaspiro[4.5]decan-10-yl)methyl)morpholin-3-one]: the IC50 was 5 to 50 µM.

Take `O=C1COCCN1CC1(O)CCN(C(=O)N2CCNC[C@H]2c2ccccc2)CC12CCCC2` (stereo partly drawn) [Example 118, 4-((10-Hydroxy-7-((R)-2-phenylpiperazine-1-carbonyl)-7-azaspiro[4.5]decan-10-yl)methyl)morpholin-3-one]: the IC50 is 0.5 to 5 µM.
